The values that follow come from PubChem BioAssay (NCI).

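Compound exposure: 48 hours, 5 concentrations, 96-well plates. TGI: concentration producing complete growth inhibition.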 Some results are limits rather than exact numbers.

Some test systems named below: CAKI-1 renal; COLO 205 colon; DU-145 prostate; HCC-2998 colon; HCT-116 colon; HOP-92 NSCLC; HT29 colon; KM12 colon; MALME-3M melanoma; MDA-MB-435; NCI-H23 lung; OVCAR-4 ovarian; OVCAR-5 ovarian; SF-295 CNS; SN12C renal; SR leukemia; OVCAR-8 ovarian.
What all share (test): NCI-60 cell line screen, 48 h

Take `[N-]=[NH+]CC(=O)OC(COCc1ccccc1)COCc1ccccc1`: the TGI is 86.6 µM with CAKI-1 renal; over 100 µM in the assay with COLO 205 colon; over 100 µM in the assay on DU-145 prostate; over 100 µM in the assay with HCC-2998 colon; over 100 µM in the assay with HCT-116 colon; over 100 µM in the assay on HOP-92 NSCLC. Also, the TGI in the assay on HT29 colon is over 100 µM; in the assay with KM12 colon it was 86.2 µM; in the assay on MALME-3M melanoma, over 100 µM; with MDA-MB-435, over 100 µM; with NCI-H23 lung, over 100 µM; with OVCAR-4 ovarian, over 100 µM. The TGI in the assay with OVCAR-5 ovarian, in the assay with SF-295 CNS, in the assay on SN12C renal and in the assay on SR leukemia was over 100 µM in each case.
As to `O=C(c1ccco1)N(C(=S)N1CCN(c2ccccn2)CC1)C1CCCCC1`, the TGI in the assay on CAKI-1 renal, in the assay with COLO 205 colon, in the assay with HCT-116 colon, in the assay on HOP-92 NSCLC, with HT29 colon and with KM12 colon was over 100 µM in each case. Besides, the TGI in the assay on MALME-3M melanoma, in the assay with NCI-H23 lung, in the assay with OVCAR-4 ovarian, with OVCAR-5 ovarian, with OVCAR-8 ovarian and with SF-295 CNS was over 100 µM in each case. In addition, the TGI with SN12C renal and in the assay on SR leukemia was over 100 µM throughout.
Take `CCCn1c(SCC)c2cc3cc4ccccc4cc3cc2c1-c1nc(F)nc(F)n1`: the TGI with CAKI-1 renal, in the assay on COLO 205 colon, with HCC-2998 colon, in the assay with HCT-116 colon, in the assay on HOP-92 NSCLC and in the assay with HT29 colon was over 100 µM in each case. Besides, the TGI in the assay with KM12 colon, in the assay with MALME-3M melanoma, with NCI-H23 lung, in the assay on OVCAR-4 ovarian, in the assay with OVCAR-5 ovarian and in the assay with OVCAR-8 ovarian was over 100 µM in each case. Further, the TGI in the assay on SF-295 CNS, in the assay with SN12C renal and in the assay with SR leukemia was over 100 µM in each case.
With `CC(C)C1CCC/C=C/C=C/C=C/C=C/C(OC2OC(C)C(O)C(N)C2O)CC2OC(O)(CC(O)CC(O)C(O)CCC(=O)O1)CC(O)C2C(=O)O` (centres undefined), the TGI with CAKI-1 renal, with COLO 205 colon, with HCT-116 colon, in the assay on HOP-92 NSCLC, in the assay with HT29 colon and in the assay with MALME-3M melanoma was over 52.5 µM in each case. In addition, the TGI in the assay with OVCAR-8 ovarian, in the assay on SF-295 CNS, in the assay with SN12C renal and in the assay on SR leukemia was over 52.5 µM in each case.
On to `O=C1c2ccccc2C2=Nc3ccncc3CN12`, for which the TGI in the assay with CAKI-1 renal, with COLO 205 colon, with DU-145 prostate, in the assay on HCC-2998 colon, in the assay on HCT-116 colon and with HOP-92 NSCLC was over 100 µM each time. The TGI in the assay with HT29 colon, in the assay with KM12 colon, in the assay on MALME-3M melanoma, in the assay with NCI-H23 lung, in the assay with OVCAR-4 ovarian and in the assay with OVCAR-5 ovarian was over 100 µM throughout. Also, the TGI with OVCAR-8 ovarian, in the assay with SF-295 CNS, in the assay on SN12C renal and in the assay on SR leukemia was over 100 µM in each case.
Turning to `COC(=O)C1[C@@H](C(=O)OC)C12C=Cc1ccccc1C=C2` (some centres undefined), the TGI in the assay with COLO 205 colon, with HCC-2998 colon, in the assay with HCT-116 colon, with HOP-92 NSCLC, with KM12 colon and in the assay with MALME-3M melanoma was over 100 µM in each case. Moreover, the TGI with NCI-H23 lung, in the assay with OVCAR-5 ovarian, in the assay on OVCAR-8 ovarian, in the assay on SF-295 CNS, in the assay on SN12C renal and in the assay on SR leukemia was over 100 µM each time.
With `CC1(C)CCC[C@@]2(C)C1CC[C@H]1CC(O)C3(C)CCC12C3` (some centres undefined), the TGI with CAKI-1 renal was determined as 32 µM; in the assay on HCC-2998 colon, 34.1 µM; with HCT-116 colon it was 31 µM; in the assay on HOP-92 NSCLC, 30.5 µM; with HT29 colon, 32.1 µM; in the assay on KM12 colon, 31.3 µM. The TGI in the assay on MALME-3M melanoma stood at 30.7 µM; in the assay on NCI-H23 lung, 32.8 µM; in the assay on OVCAR-4 ovarian it was 31.9 µM; in the assay with OVCAR-5 ovarian, 32.2 µM; in the assay on OVCAR-8 ovarian, 32.6 µM; in the assay with SN12C renal, 30.7 µM. Moreover, the TGI in the assay with SR leukemia is 46.7 µM.
For the compound `C#C[C@]1(O)CCC2C3CCc4cc(Oc5nc(F)nc(-c6c7cc8ccccc8cc7c7n6CCS7)n5)ccc4C3CCC21C` (some centres undefined), the TGI is 42.2 µM in the assay on COLO 205 colon; over 100 µM in the assay with HCC-2998 colon; over 100 µM with HCT-116 colon; over 100 µM with HOP-92 NSCLC; 74.3 µM with HT29 colon; over 100 µM with KM12 colon. Also, the TGI in the assay with MALME-3M melanoma, in the assay with NCI-H23 lung, with OVCAR-8 ovarian, in the assay on SF-295 CNS and with SN12C renal was over 100 µM each time.
As for `CSc1nc(NC(=O)O)c(N(C(C)=O)C(=O)O)c(=O)n1C`, the TGI in the assay on CAKI-1 renal, with COLO 205 colon, with HCC-2998 colon, with HCT-116 colon, with HOP-92 NSCLC and with HT29 colon was over 100 µM throughout. Also, the TGI in the assay with KM12 colon, with MALME-3M melanoma, in the assay on OVCAR-4 ovarian, in the assay with OVCAR-5 ovarian, with OVCAR-8 ovarian and in the assay with SF-295 CNS was over 100 µM throughout. Further, in the assay with SN12C renal, the TGI was over 100 µM.
In the case of `N#Cc1c(Cl)/c(=C/O)c(=O)n2c1nc1ccccc12`, the TGI was over 100 µM in the assay with CAKI-1 renal; over 100 µM in the assay on COLO 205 colon; over 100 µM in the assay on DU-145 prostate; over 100 µM in the assay on HCC-2998 colon; over 100 µM in the assay with HCT-116 colon; 68.1 µM with HOP-92 NSCLC. The TGI in the assay with HT29 colon, with KM12 colon, in the assay with MALME-3M melanoma, in the assay on MDA-MB-435, with NCI-H23 lung and in the assay with OVCAR-4 ovarian was over 100 µM throughout. For the same compound, the TGI with OVCAR-5 ovarian was 91.7 µM; in the assay on OVCAR-8 ovarian it was over 100 µM; in the assay with SF-295 CNS, over 100 µM; in the assay on SN12C renal it was over 100 µM.
As for `CC1=CC(=O)C(=O)C2=C1OC1(C2)C(C)CCC2C3(C)CCC(O)C(C)(C)C3CCC21C` (centres undefined), the TGI in the assay on CAKI-1 renal was found to be 33.8 µM; with COLO 205 colon, 32.6 µM; in the assay on HCC-2998 colon it was 34 µM; in the assay with HCT-116 colon, 30.2 µM; in the assay on HOP-92 NSCLC, 33.1 µM; in the assay on HT29 colon, 40.1 µM. Further, the TGI is 29.9 µM with KM12 colon; 35.3 µM in the assay on MALME-3M melanoma; 31.3 µM in the assay on NCI-H23 lung; 37.4 µM in the assay with OVCAR-4 ovarian; 37.2 µM in the assay with OVCAR-5 ovarian; 44.7 µM in the assay with OVCAR-8 ovarian. Besides, the TGI in the assay with SF-295 CNS is 35.3 µM; in the assay with SN12C renal, over 100 µM; in the assay with SR leukemia, over 100 µM.
Turning to `Cc1cccc2[s+]snc12`, the TGI is over 100 µM in the assay on CAKI-1 renal; 50.8 µM in the assay with COLO 205 colon; over 100 µM in the assay on HCC-2998 colon; over 100 µM in the assay with HCT-116 colon; 44.9 µM in the assay on HOP-92 NSCLC; over 100 µM in the assay on HT29 colon. Further, the TGI with KM12 colon is over 100 µM; in the assay on MALME-3M melanoma, over 67.3 µM; in the assay on NCI-H23 lung, over 100 µM; in the assay on OVCAR-4 ovarian it was over 100 µM; with OVCAR-5 ovarian, over 100 µM; in the assay with OVCAR-8 ovarian, over 63.7 µM. The TGI in the assay with SF-295 CNS was over 100 µM; in the assay with SN12C renal, over 100 µM; with SR leukemia it was 77.8 µM.
With `COc1ccc2cc(/C=N\NC(=O)Nc3cccc4ccccc34)ccc2c1`, the TGI is 47.6 µM in the assay on CAKI-1 renal; over 100 µM in the assay with COLO 205 colon; over 100 µM with DU-145 prostate; over 100 µM with HCC-2998 colon; 30.5 µM in the assay with HCT-116 colon; over 100 µM with HT29 colon. The TGI in the assay on KM12 colon was over 100 µM; in the assay on MALME-3M melanoma, over 100 µM; in the assay with MDA-MB-435, over 100 µM; with NCI-H23 lung, over 100 µM; with OVCAR-4 ovarian, 72.1 µM; in the assay with OVCAR-5 ovarian, over 100 µM. The TGI with OVCAR-8 ovarian was over 100 µM; in the assay on SN12C renal, over 100 µM; with SR leukemia, 29.6 µM.
Turning to `O=C(c1cccs1)N(C(=S)N1CCN(c2ccccn2)CC1)C1CCCCC1`, the TGI in the assay on CAKI-1 renal was over 100 µM; with COLO 205 colon, 46.8 µM; in the assay on HCT-116 colon it was over 100 µM; with HOP-92 NSCLC it was over 100 µM; in the assay with HT29 colon, over 100 µM; in the assay with KM12 colon, over 100 µM. Further, the TGI with MALME-3M melanoma, in the assay on NCI-H23 lung, in the assay with OVCAR-4 ovarian, in the assay on OVCAR-5 ovarian, in the assay on OVCAR-8 ovarian and in the assay on SF-295 CNS was over 100 µM each time. Further, the TGI in the assay with SN12C renal and with SR leukemia was over 100 µM in each case.
On to `COc1cc(C=Nc2ccc(C(C)C)cc2)cc(OC)c1OC`, for which the TGI in the assay on CAKI-1 renal, in the assay on COLO 205 colon, in the assay on HCT-116 colon, in the assay on HOP-92 NSCLC, with HT29 colon and with KM12 colon was over 100 µM in each case. For the same compound, the TGI in the assay on MALME-3M melanoma, in the assay on NCI-H23 lung, with OVCAR-4 ovarian, in the assay with OVCAR-5 ovarian, with OVCAR-8 ovarian and in the assay on SF-295 CNS was over 100 µM in each case. Moreover, the TGI with SN12C renal and in the assay on SR leukemia was over 100 µM each time.
